Results published in patent publication US8067620B2, “Dispiro 1,2,4-trioxolane antimalarials” (Medicines for Malaria Venture MMV, priority 2005, dated 2011).

Tests used:
P. berghei = experiment: Prophylactic activity against P. berghei in vivo (mice dosed before infection); conditions: for Cures 24 h prior to infection (30 mg/kg) / Activity (%) 24 h prior to infection (30 mg/kg): single 30 mg/kg oral dose 24 h prior to infection; for Cures 24 h prior to infection (30 mg/kg) / Cures 48 h prior to infection (100 mg/kg) / Cures 72 h prior to infection (100 mg/kg) / Cures 96 h prior to infection (100 mg/kg): n=5 mice; for Activity (%) 24 h prior to infection (30 mg/kg) / Activity (%) 48 h prior to infection (100 mg/kg): parasitemia day 3 post-infection; for Cures 48 h prior to infection (100 mg/kg) / Activity (%) 48 h prior to infection (100 mg/kg): single 100 mg/kg oral dose 48 h prior to infection; for Activity (%) 72 h prior to infection (100 mg/kg) / Cures 72 h prior to infection (100 mg/kg): single 100 mg/kg oral dose 72 h prior to infection; for Activity (%) 96 h prior to infection (100 mg/kg) / Cures 96 h prior to infection (100 mg/kg): single 100 mg/kg oral dose 96 h prior to infection
Procedure: All groups (n=5 mice per group) including an untreated control group, were infected at the same time and parasitemia was determined for each animal on day 3 post-infection and compared with the level of parasitemia in control animals.

[1] = Pharmacokinetic studies in rats (oral); type: in vivo, rat; conditions: oral 10 mg/kg; for Oral Bioavailability at 10 mg/kg (%): relative to an IV dose
Procedure: Pharmacokinetic studies in rats: Compounds were administered orally to rats (n=2) at a dose of 10 mg/kg in a suspension formulation containing hydroxypropylmethyl cellulose, Tween 80, benzyl alcohol, and water. […] Oral bioavailability for each compound was calculated relative to an IV dose for each compound in a suitable vehicle.

[2] = Blood stability studies in freshly collected rat blood; type: in vitro ADME; set-up: unit not given here
Procedure: Blood stability studies: Compounds were incubated at 37° C. in freshly collected rat blood. At selected time points, duplicate aliquots of the whole blood were sampled, centrifuged and the plasma assayed for parent compound by LC-MS.

[3] = system: ANKA strain of P. berghei; experiment: Single dose in vivo screen in P. berghei-infected NMRI mice; conditions: for Survival (days) 30 mg/kg SSV po / Activity (%) 30 mg/kg SSV po: single 30 mg/kg po dose in SSV one day post-infection; for Activity (%) 30 mg/kg SSV po: percent reduction in parasitemia on day three post-infection; for Cures 30 mg/kg SSV po: single 30 mg/kg po dose in SSV, cure = survival to day 30 post-infection, groups of five mice
Procedure: Activity of 1,2,4-trioxolanes against P. berghei in vivo. In the single dose in vivo screen, NMRI mice infected with the ANKA strain of P. berghei (groups of five mice) were treated one day post-infection with trioxolanes dissolved or suspended in standard suspending vehicle (SSV). The SSV consists of either 0.5% w/v carboxymethyl cellulose, 0.5% v/v benzyl alcohol, 0.4% v/v Tween 80, and 0.9% w/v sodium chloride in water or 0.5% hydroxypropylmethylcellulose 0.4% v/s Tween 80, and 0.5% v/v benzyl alcohol in water. […] Antimalarial activity was measured by percent reduction in parasitemia on day three post-infection and survival times compared to an untreated control group. Survival to day 30 post-infection is considered to be a cure in this model.

SMILES	Cures 24 h prior to infection (30 mg/kg) (P. berghei)	Activity (%) 24 h prior to infection (30 mg/kg) (P. berghei) [%]	Cures 48 h prior to infection (100 mg/kg) (P. berghei)	Activity (%) 48 h prior to infection (100 mg/kg) (P. berghei) [%]	In Vivo Oral t1/2 at 10 mg/kg ([1]; 10 mg/kg) [h]	Oral Bioavailability at 10 mg/kg (%) ([1]; 10 mg/kg)	Stability in Rat Blood (t1/2) at 37° C. [2]	In Vivo Oral t1/2 at 10 mg/kg [1] [h]	Oral Bioavailability at 10 mg/kg (%) [1] [%]	Activity (%) 72 h prior to infection (100 mg/kg) (P. berghei) [%]	Cures 72 h prior to infection (100 mg/kg) (P. berghei)	Activity (%) 96 h prior to infection (100 mg/kg) (P. berghei) [%]	Cures 96 h prior to infection (100 mg/kg) (P. berghei)	Survival (days) 30 mg/kg SSV po [3] [days]	Activity (%) 30 mg/kg SSV po [3] [%]	Cures 30 mg/kg SSV po [3]	Malaria-curative with a single dose ([3]; single dose, dose not stated)
CS(=O)(=O)N1CCN(CCOc2ccc([C@H]3CC[C@]4(CC3)OOC3(O4)C4CC5CC(C4)CC3C5)cc2)CC1.CS(=O)(=O)O (stereo partly shown) [OZ485]	3/5	>99.9	5/5	>99.9	–	–	–	–	–	–	–	–	–	–	–	–	–
CS(=O)(=O)O.NC1CCC(Oc2ccc(C3CCC4(CC3)OOC3(O4)C4CC5CC(C4)CC3C5)cc2)CC1 (stereo not shown) [OZ537]	5/5	>99.9	5/5	>99.9	11.8	29	>17	–	–	–	–	–	–	–	–	–	–
CS(=O)(=O)N1CCN(CCCOc2ccc([C@H]3CC[C@]4(CC3)OOC3(O4)C4CC5CC(C4)CC3C5)cc2)CC1.Cc1ccc(S(=O)(=O)O)cc1 (stereo partly shown) [OZ482]	3/5	>99.9	5/5	>99.9	–	–	>17	9.6	100	99.6	4/5	99.6	3/5	–	–	–	–
NCCOc1ccc([C@H]2CC[C@]3(CC2)OO[C@]2(O3)C3CC4CC(C3)CC2C4)cc1 [OZ323, reference compound]	0/5	99.7	5/5	99.5	–	–	7.7	5.2	100	>99.9	1/5	90	0/5	–	–	–	–
OC1CCN(CCOc2ccc([C@H]3CC[C@]4(CC3)OOC3(O4)C4CC5CC(C4)CC3C5)cc2)CC1 (stereo partly shown) [OZ513]	1/5	99.9	5/5	99.7	–	–	–	–	–	–	–	–	–	–	–	–	–
CS(=O)(=O)O.c1cc([C@H]2CC[C@]3(CC2)OOC2(O3)C3CC4CC(C3)CC2C4)ccc1OCCCN1CCOCC1 (stereo partly shown) [OZ461]	5/5	99.9	5/5	99.7	–	–	–	–	71	99.6	5/5	99.4	4/5	–	–	–	–
CS(=O)(=O)O.c1cc([C@H]2CC[C@]3(CC2)OOC2(O3)C3CC4CC(C3)CC2C4)ccc1OC1CCNCC1 (stereo partly shown) [OZ429]	2/5	99.8	5/5	99.8	–	–	5.5	5.3	73	–	–	–	–	27.8	99.97	4/5	–
CS(=O)(=O)O.NCCCCCOc1ccc(C2CCC3(CC2)OOC2(O3)C3CC4CC(C3)CC2C4)cc1 (stereo not shown) [OZ498]	4/5	99.8	5/5	99.8	–	–	–	–	–	–	–	–	–	–	–	–	–
CC(C)(N)CCOc1ccc(C2CCC3(CC2)OOC2(O3)C3CC4CC(C3)CC2C4)cc1.Cc1ccc(S(=O)(=O)O)cc1 (stereo not shown) [OZ539]	4/5	>99.9	5/5	>99.9	–	–	–	–	–	–	–	–	–	25.2	99.7	3/5	malaria-curative in some instances with a single dose
CC(C)(CN)Oc1ccc(C2CCC3(CC2)OOC2(O3)C3CC4CC(C3)CC2C4)cc1.CS(=O)(=O)O (stereo not shown) [OZ453]	0/5	99.9	5/5	99.7	–	–	6.1	–	–	–	–	–	–	–	–	–	–
Cc1ccc(S(=O)(=O)O)cc1.O[C@H]1CC[C@H](NCCCOc2ccc([C@H]3CC[C@]4(CC3)OOC3(O4)C4CC5CC(C4)CC3C5)cc2)CC1 (stereo partly shown) [OZ535]	0/5	>99.9	5/5	>99.9	–	–	–	–	–	–	–	–	–	–	–	–	–
O=C1CCC([C@H]2CC[C@]3(CC2)OOC2(O3)C3CC4CC(C3)CC2C4)CC1 (stereo partly shown) [OZ495]	1/5	>99.9	0/5	>99.9	–	–	–	–	–	–	–	–	–	26.8	99.3	3/5	–
O[C@H]1CC[C@@H](C2CCC3(CC2)OOC2(O3)C3CC4CC(C3)CC2C4)CC1 (stereo partly shown) [OZ508]	4/5	99.7	4/5	99.8	–	–	–	–	–	–	–	–	–	24.4	99.8	3/5	–
C[C@H]1[C@H](OC(=O)CCC(=O)O)O[C@@H]2O[C@@]3(C)CC[C@H]4[C@H](C)CC[C@@H]1[C@@]24OO3 [AS, artesunate, reference compound]	0/5	21	0/5	0	–	–	–	–	–	–	–	–	–	9.0	92	0/5	–
CS(=O)(=O)O.c1cc(C2CCC3(CC2)OOC2(O3)C3CC4CC(C3)CC2C4)ccc1OCCN1CCSCC1 (stereo not shown) [OZ460]	3/5	99.8	5/5	99.6	–	–	–	–	–	–	–	–	–	25.0	99	3/5	–
CC(C)(O)CNCCCOc1ccc([C@H]2CC[C@]3(CC2)OOC2(O3)C3CC4CC(C3)CC2C4)cc1.Cc1ccc(S(=O)(=O)O)cc1 (stereo partly shown) [OZ505]	2/5	>99.9	5/5	99.5	–	–	–	–	–	–	–	–	–	–	–	–	–
NC[C@H]1CC[C@]2(CC1)OOC1(O2)C2CC3CC(C2)CC1C3 (stereo partly shown) [OZ209, reference compound]	–	–	–	–	–	–	0.8	1.2	12	–	–	–	–	–	–	–	–
